Results reported in article PMC6407917, “Identification of GSK3186899/DDD853651 as a Preclinical Development Candidate for the Treatment of Visceral Leishmaniasis” (Journal of Medicinal Chemistry, 2018).

Experiments:
Experiment in all cases: biochemical
Parameters in all cases: species or system HEK293/K-562/placenta mixed human extract; Kinobeads chemoproteomic competition binding, quantified by TMT LC-MS/MS, dose response up to 20 uM
PKN2 = PKN2 (Homo sapiens, UniProt Q16513)
BTK = BTK (Homo sapiens, UniProt Q06187)
NEK9 = NEK9 (Homo sapiens, UniProt Q8TD19)
MAP3K15 = MAP3K15 (Homo sapiens, UniProt Q6ZN16)
CLK1 = CLK1 (Homo sapiens, UniProt P49759)
HIPK1 = HIPK1 (Homo sapiens, UniProt Q86Z02)
CDC42BPA = CDC42BPA (Homo sapiens, UniProt Q5VT25)
NEK7 = NEK7 (Homo sapiens, UniProt Q8TDX7)
ULK3 = ULK3 (Homo sapiens, UniProt Q6PHR2)
DYRK2 = DYRK2 (Homo sapiens, UniProt Q92630)
MARK4 = MARK4 (Homo sapiens, UniProt Q96L34)
PIK3C3 = PIK3C3 (Homo sapiens, UniProt Q8NEB9)
EPHB2 = EPHB2 (Homo sapiens, UniProt P29323)
STK35 = STK35 (Homo sapiens, UniProt Q8TDR2)
PRKCD = PRKCD (Homo sapiens, UniProt Q05655)
AZI2 = AZI2 (Homo sapiens, UniProt Q9H6S1)
RPS6KA3 = RPS6KA3 (Homo sapiens, UniProt P51812)
MAPK11 = MAPK11 (Homo sapiens, UniProt Q15759)
TAOK3 = TAOK3 (Homo sapiens, UniProt Q9H2K8)
FN3KRP = FN3KRP (Homo sapiens, UniProt Q9HA64)
EIF2AK4 = EIF2AK4 (Homo sapiens, UniProt Q9P2K8)

Measured: IC50

Chain of MAPK11 (Q15759 whole entry): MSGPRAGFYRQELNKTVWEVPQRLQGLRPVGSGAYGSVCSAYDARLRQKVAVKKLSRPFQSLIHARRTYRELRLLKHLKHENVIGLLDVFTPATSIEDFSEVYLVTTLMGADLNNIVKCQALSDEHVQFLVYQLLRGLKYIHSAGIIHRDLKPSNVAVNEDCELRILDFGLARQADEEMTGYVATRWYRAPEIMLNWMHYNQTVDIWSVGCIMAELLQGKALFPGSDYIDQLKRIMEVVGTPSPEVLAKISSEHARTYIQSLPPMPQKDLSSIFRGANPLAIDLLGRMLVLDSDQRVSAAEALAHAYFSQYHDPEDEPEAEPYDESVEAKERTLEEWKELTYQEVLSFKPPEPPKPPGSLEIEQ
Chain of DYRK2 (Q92630 whole entry): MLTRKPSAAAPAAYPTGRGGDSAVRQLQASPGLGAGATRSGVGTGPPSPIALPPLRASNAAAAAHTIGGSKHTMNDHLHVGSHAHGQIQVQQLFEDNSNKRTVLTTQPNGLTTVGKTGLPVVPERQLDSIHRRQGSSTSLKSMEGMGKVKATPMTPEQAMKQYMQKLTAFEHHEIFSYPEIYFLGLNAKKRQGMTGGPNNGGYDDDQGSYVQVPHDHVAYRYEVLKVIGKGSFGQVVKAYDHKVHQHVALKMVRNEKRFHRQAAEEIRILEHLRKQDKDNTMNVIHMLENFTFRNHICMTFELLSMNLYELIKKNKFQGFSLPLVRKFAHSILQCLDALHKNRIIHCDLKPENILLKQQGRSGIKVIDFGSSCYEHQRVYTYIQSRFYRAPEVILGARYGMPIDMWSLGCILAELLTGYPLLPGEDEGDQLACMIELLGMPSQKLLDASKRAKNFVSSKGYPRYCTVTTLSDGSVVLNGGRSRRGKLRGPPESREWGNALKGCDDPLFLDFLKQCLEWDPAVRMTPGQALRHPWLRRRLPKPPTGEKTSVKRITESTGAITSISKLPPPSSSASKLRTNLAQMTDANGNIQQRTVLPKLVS
Chain of AZI2 (Q9H6S1 whole entry): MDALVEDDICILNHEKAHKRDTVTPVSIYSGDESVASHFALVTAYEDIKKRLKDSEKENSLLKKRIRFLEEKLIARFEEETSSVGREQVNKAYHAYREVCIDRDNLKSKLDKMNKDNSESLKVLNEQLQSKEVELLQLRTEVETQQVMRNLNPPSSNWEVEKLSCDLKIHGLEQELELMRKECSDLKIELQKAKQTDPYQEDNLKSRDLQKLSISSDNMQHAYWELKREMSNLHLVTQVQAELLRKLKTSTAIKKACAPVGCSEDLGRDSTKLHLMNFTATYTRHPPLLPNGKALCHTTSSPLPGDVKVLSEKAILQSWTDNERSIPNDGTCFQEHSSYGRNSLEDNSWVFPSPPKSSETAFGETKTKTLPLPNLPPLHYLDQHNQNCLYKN
Chain of ULK3 (Q6PHR2 whole entry): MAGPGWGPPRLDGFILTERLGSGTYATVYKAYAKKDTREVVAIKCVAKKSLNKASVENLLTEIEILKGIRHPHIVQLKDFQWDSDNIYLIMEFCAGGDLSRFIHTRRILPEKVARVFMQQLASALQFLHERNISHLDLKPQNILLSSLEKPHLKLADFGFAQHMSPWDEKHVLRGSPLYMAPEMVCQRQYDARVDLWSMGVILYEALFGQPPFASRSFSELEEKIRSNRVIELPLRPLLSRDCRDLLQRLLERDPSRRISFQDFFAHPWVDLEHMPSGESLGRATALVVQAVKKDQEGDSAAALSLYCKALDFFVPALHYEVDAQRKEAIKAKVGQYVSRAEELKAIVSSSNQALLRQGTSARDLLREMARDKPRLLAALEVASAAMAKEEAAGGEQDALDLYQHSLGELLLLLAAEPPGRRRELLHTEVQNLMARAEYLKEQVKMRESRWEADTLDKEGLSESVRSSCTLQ
Chain of HIPK1 (Q86Z02 whole entry): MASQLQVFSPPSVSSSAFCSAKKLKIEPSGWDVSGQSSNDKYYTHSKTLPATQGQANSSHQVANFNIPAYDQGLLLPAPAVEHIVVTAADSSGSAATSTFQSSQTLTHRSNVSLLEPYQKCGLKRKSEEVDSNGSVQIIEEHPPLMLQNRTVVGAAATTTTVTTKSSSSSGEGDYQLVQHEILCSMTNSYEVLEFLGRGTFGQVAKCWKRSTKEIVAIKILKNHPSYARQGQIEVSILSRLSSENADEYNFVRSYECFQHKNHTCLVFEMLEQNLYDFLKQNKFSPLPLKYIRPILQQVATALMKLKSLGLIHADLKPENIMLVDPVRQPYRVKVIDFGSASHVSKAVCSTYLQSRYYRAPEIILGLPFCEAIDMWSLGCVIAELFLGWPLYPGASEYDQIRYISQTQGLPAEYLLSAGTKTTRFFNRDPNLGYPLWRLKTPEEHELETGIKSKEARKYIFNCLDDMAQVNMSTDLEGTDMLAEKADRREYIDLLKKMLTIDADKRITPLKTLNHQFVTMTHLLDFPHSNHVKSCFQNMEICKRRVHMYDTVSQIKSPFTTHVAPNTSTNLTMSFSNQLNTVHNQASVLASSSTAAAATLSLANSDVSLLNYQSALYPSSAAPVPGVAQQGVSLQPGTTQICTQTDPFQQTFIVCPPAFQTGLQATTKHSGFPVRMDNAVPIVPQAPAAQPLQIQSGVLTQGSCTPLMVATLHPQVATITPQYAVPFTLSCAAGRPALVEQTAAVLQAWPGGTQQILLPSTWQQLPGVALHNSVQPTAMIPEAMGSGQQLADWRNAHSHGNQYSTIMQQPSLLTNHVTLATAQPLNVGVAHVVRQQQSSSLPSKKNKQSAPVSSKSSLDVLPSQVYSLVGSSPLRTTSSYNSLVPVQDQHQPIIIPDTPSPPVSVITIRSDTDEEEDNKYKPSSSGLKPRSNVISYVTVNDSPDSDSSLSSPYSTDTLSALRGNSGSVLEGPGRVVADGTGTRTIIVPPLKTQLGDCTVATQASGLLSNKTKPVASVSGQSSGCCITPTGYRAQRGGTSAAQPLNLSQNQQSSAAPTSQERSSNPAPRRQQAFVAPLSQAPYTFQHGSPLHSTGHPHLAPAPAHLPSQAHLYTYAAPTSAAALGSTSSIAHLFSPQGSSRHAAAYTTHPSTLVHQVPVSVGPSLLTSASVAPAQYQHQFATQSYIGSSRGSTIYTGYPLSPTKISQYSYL
Chain of PRKCD (Q05655 whole entry): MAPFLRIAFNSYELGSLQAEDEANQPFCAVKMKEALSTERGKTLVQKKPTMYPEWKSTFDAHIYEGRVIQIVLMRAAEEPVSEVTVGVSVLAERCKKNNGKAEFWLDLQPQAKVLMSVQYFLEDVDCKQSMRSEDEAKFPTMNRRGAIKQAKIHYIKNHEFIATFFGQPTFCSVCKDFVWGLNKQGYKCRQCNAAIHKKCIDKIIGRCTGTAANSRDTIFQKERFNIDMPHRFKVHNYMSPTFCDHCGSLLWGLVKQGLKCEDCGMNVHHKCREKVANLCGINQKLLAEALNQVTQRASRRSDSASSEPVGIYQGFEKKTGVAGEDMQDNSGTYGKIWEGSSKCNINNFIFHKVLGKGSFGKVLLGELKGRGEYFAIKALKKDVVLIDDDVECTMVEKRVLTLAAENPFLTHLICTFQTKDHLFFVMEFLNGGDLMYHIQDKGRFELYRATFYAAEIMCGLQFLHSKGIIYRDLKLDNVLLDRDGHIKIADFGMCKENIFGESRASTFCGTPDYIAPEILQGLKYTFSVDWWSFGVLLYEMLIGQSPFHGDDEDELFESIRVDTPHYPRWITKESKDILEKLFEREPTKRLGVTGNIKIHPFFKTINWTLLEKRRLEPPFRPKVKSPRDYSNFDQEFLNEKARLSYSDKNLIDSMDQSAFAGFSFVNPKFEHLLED
Chain of FN3KRP (Q9HA64 whole entry): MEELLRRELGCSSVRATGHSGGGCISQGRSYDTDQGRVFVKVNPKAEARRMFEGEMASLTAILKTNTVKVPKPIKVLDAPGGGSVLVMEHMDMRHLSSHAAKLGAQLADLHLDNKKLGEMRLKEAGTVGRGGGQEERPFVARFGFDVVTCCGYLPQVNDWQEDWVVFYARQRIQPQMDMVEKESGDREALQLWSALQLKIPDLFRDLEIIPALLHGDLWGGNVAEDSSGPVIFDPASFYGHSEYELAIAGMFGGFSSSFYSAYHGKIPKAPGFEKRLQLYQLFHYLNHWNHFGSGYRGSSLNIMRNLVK
Chain of STK35 (Q8TDR2 whole entry): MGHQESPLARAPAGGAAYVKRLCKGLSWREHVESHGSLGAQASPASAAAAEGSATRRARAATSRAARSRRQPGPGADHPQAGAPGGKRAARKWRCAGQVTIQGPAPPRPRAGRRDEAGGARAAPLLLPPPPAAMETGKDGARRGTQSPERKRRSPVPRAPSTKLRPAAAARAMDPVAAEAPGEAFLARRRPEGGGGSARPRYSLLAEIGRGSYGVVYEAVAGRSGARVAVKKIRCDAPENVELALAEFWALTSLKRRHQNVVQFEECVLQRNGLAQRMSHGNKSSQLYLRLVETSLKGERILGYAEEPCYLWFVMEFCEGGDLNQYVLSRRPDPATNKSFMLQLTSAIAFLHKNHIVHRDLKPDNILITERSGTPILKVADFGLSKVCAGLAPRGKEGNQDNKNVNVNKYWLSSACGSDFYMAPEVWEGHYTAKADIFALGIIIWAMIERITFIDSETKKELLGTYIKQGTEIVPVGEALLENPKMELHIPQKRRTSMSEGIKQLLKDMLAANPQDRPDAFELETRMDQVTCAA
Chain of NEK7 (Q8TDX7 whole entry): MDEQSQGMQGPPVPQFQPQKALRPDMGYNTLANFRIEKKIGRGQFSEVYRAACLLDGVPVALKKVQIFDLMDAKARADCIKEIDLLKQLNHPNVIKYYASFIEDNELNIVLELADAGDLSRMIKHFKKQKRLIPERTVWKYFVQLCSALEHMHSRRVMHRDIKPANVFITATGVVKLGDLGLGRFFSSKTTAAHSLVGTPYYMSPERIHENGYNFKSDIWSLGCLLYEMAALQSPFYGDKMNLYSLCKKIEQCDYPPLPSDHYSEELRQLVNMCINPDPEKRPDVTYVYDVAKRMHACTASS

COc1nc(N[C@H]2CC[C@H](NS(=O)(=O)CC(C)C)CC2)nc2[nH]nc(N3CCOC[C@H]3C)c12 [compound 39, N-(trans-4-((4-Methoxy-3-((R)-3-methylmorpholino)-1H-pyrazolo[3,4-d]pyrimidin-6-yl)amino)cyclohexyl)-2-methylpropane-1-sulfonamide]
≥ 20 µM: all assays above
